Test results reported in patent US12202790B2, “Sulfonamide derivatives having selective Nox inhibiting activity” (GLUCOX BIOTECH AB, priority 2018, dated 2025).
Converted amounts (≈) assume the structure as drawn.

Key:
[1] = Determination of solubility; assay type: physicochemical; conditions: 10 mM potassium phosphate buffer, aqueous buffer, kinetic from dmso stock; 10 mM potassium phosphate pH 7.4, 24 h, room temperature; read-out: Kinetic solub.
Description: Two μl of test compound (from 10 mM DMSO stock) were diluted 100× in 10 mM potassium phosphate pH 7.4 in a HPLC glass vial, sealed and incubated for 24 h under rotation (900 rpm) at room temperature. After the incubation 150 μl were transferred to conical glass inserts and centrifuged for 20 min at 10,000×g. Two μl of the supernatant were transferred to a 96-well plate, diluted 100× with acetonitrile/H2O (60/40, vol/vol) and analyzed by LC-MS/MS.

xanthine oxidase = xanthine oxidase (Bos taurus (Bovine), UniProt P80457); assay: Amplex Red xanthine oxidase (XO) assay; assay type: biochemical; parameters: key: The sign “—” stands for “inactive”
Description: (§1) Reactive oxygen produced in whole cells or in membrane preparation of Nox1, Nox3, Nox4, Nox5 and xanthine oxidase and glucose oxidase were determined using Amplex Red as detection probe of formed H2O2. Amplex Red (10-acetyl-3,7-dihydroxyphenoxazine) in combination with HRP and co-factors reacts with H2O2 in a 1:1 stoichiometry to form a highly fluorescent resorufin excitated at 544 nm producing emission at 590 nm.
The assay was designed for Amplex Red analysis of production of hydrogen peroxide. Test compounds were incubated with 5 mU/ml bovine derived xanthine oxidase for 15 min at room temperature followed by the addition of substrate and detection mix (final concentrations of 0.2 U/ml HRP, 5 μM hypoxanthine, and 50 μM Amplex Red). As described by Hirano K et al., Antioxid Redox Signal 2015 10; 23:358-374, production of hydrogen peroxide was followed by fluorescence detection during 30 min at 37° C. in a plate reader that use excitation at 544 nm producing emission at 590 nm.

[2] = Determination of chemical stability; assay type: physicochemical
Description: Test compound was pipetted into an HPLC vial, from 10 mM DMSO, to yield 2 μM final concentration in three separate vials containing buffers with different pH. At reaction start the three different buffers were mixed with isopropanol (1:2, buffer:isopropanol). The buffers used were: pH 2 (H3PO4/KH2PO4 10 mM), pH 7.4 (KH2PO4/K2HPO4 10 mM) and pH 10 (Glycine/NaOH 10 mM). Immediately (<1 minute) after buffer or buffer/isopropanol addition, a 100 μl aliquot was added to a separate plate containing 100 μl acetonitrile:H2O (60:40) and Warfarin (internal standard, IS), sealed and frozen at −20° C. This test was made for 2 h and 20 h. Analysis was performed on a XEVO TQ mass spectrometer coupled to an Acquity UPLC system in ESI^+MRM mode, separation on a BEH C18 2×50 mm column.

Nox5 = Nox5 (Homo sapiens (Human), UniProt Q96PH1); assay: Amplex Red assay of Nox5 expressing HEK cells; assay type: cell-based; parameters: key: The sign “—” stands for “inactive”
Description: (§2) HEK293 overexpressing Nox4 (CJ Nox4) cells were purchased from Redoxis, Lund, Sweden. HEK 293 cells expressing Nox5, Nox3 (HEK TRex) and CHO cells expressing Nox1, were a kind gift from Vincent Jaque Center Medical Universitaire, Geneva, Switzerland. Nox2 expressed in isolated neutrophils were isolated from whole blood (human), as previously described (Anvari E, et al., Free Radic Res 2015; 49:1308-1318).
(§3) HEK293T cells expressing tetracycline-inducible human (Nox3 or Nox4) and HEK293 cells stably expressing human Nox5 were generated as described previously (Serrander et al., 2007a,b). HEK cells were cultured in Dulbecco's modified Eagle medium (DMEM) with 4.5 g/l glucose, supplemented with FBS (10%), penicillin (100 U/ml) and streptomycin […] at 37° C. in air with 5% CO2.
as §1
(§4) Adherent cells (CHO, HEK) were collected by trypsinization, centrifuged, washed with HBSS, counted, and resuspended in HBSS. Cells were seeded in 96-well black flat bottom plates at a density of 50,000-100,000 cells/well. All compounds were dissolved in DMSO and concentrations ranging from 0.003 to 200 μM were tested in Nox cellular assays with a final concentration of DMSO of 1%. Cells were incubated at 37° C. with the compounds for 30 minutes before measurement. Cells expressing Nox1 and Nox2 were activated with the PKC activator PMA (0.1 μM). Nox5 was activated with the Ca2+ ionophore ionomycin (1 μM) and further enforced with PMA. The CJ HEK 293 cells overexpressed Nox4 constitutively. In the HTS screen HEK 293 TRex was used and tetracycline (1 mg/ml) was added 18 h before measurement to induce Nox4 expression. Production of hydrogen peroxide by Nox in intact cells was measured using Amplex Red fluorescence as described by Jaquet V, et al., Br J Pharmacol 2011; 164:507-520. Assay reagents including HRP (0.1 mM) and Amplex Red (50 μM) were added to initiate production of hydrogen peroxide. Fluorescence was read in a fluorescence plate reader at 37° C. every minute between 30-60 minutes.

[3] = tested on: Nox1, Nox2, Nox3 and Nox5; assay: Activity on Nox1, Nox2, Nox3 and Nox5; assay type: cell-based
Description: as §1
as §4, with “Assay reagents including HRP (0.1 mM) and Amplex Red (50 μM) were added to initiate production of hydrogen peroxide.” left out
Compounds of the invention were tested for selectivity against Nox2 in isolated neutrophils from whole blood (human), as previously described (Anvari E, et al., vide supra). Levels of ROS from PMA stimulated primary human neutrophils were measured using isoluminol-dependent chemiluminescence. […] The dye is excited by ROS and the light emitted when the excited molecules return to the ground state, relative to the amount of released ROS, is measured. […] Luminescence was detected using FluoStar Optima (BMG, Labtech). […]

Nox3 = Nox3 (Homo sapiens (Human), UniProt Q9HBY0); assay: Amplex Red assay of Nox3 expressing HEK cells; assay type: cell-based; parameters: key: The sign “—” stands for “inactive”
Description: as §2, §3, §1
as §4, with “Nox5 was activated with the Ca2+ ionophore ionomycin (1 μM) and further enforced with PMA. The CJ HEK 293 cells overexpressed Nox4 constitutively. In the HTS screen HEK 293 TRex was used and tetracycline (1 mg/ml) was added 18 h before measurement to induce Nox4 expression.” left out, “Assay reagents including HRP (0.1 mM) and Amplex Red (50 μM) were added to initiate production of hydrogen peroxide.” left out

Chain of xanthine oxidase (P80457 whole entry): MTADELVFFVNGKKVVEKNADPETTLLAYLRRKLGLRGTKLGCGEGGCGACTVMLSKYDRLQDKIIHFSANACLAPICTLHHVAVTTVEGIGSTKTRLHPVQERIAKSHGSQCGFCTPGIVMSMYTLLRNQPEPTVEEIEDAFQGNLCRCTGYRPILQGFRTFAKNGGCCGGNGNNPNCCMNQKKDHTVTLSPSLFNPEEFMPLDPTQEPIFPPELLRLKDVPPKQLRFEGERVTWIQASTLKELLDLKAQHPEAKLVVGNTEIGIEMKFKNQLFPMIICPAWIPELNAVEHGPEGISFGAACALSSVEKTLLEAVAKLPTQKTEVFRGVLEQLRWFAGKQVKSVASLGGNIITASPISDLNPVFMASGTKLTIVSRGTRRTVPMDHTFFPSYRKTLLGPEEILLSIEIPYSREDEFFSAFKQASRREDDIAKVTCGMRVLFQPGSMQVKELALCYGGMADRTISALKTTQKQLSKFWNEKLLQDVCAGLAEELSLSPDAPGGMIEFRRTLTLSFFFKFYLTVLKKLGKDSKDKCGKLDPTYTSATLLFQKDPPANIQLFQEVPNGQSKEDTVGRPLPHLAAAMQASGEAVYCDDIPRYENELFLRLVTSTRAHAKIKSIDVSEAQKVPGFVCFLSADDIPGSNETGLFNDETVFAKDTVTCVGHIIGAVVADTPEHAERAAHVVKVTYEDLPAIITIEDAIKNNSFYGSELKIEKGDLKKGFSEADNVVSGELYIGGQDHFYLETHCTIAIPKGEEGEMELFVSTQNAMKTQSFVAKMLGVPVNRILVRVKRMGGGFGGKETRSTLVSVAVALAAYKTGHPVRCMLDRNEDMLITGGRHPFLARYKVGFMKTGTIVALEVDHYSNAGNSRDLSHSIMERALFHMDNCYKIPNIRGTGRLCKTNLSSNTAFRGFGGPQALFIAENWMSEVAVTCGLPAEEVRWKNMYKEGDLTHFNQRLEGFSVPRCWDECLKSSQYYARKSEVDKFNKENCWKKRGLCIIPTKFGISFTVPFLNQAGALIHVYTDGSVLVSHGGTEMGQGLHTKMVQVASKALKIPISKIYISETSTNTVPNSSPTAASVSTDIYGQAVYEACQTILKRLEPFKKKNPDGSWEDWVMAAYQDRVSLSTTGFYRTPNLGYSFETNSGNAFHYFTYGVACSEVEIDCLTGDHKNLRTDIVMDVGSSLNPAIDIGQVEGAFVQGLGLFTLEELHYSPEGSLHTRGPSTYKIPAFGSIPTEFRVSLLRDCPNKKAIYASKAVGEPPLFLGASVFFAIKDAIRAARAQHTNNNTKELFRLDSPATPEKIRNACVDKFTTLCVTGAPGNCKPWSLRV
Chain of Nox5 (Q96PH1 whole entry): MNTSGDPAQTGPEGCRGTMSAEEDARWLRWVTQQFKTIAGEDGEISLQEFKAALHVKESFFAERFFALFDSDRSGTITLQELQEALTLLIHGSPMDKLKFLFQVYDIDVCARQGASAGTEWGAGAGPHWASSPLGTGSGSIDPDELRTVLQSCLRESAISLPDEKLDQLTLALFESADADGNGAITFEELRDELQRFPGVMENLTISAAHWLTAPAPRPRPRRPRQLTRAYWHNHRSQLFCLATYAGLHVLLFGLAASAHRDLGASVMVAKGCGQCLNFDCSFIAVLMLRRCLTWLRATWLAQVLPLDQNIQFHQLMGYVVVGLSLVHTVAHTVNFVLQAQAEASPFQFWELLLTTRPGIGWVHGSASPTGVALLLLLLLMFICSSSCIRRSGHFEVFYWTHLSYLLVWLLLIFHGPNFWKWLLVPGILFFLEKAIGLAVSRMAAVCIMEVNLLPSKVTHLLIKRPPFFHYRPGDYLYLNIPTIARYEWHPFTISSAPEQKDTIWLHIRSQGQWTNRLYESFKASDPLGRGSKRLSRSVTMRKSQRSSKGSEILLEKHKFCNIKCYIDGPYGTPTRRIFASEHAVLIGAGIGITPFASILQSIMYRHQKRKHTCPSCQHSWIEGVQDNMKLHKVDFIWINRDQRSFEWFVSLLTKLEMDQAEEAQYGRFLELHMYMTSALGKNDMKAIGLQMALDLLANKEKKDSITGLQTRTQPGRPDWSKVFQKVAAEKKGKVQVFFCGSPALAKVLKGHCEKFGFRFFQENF
Chain of Nox3 (Q9HBY0 whole entry): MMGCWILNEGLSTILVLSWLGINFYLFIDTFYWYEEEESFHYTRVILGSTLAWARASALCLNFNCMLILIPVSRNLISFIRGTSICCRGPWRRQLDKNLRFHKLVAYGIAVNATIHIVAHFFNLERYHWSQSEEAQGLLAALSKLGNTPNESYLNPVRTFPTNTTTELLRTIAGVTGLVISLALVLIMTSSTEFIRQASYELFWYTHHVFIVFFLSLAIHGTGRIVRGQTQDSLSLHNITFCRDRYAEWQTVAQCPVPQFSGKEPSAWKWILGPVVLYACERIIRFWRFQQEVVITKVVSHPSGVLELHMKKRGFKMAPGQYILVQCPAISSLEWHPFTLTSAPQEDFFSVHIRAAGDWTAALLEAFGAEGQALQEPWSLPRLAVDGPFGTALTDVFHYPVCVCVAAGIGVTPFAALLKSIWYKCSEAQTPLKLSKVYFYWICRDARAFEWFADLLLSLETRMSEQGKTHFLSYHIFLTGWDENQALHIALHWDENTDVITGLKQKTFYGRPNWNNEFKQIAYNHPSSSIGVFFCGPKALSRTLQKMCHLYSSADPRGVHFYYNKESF
Chain of Nox3 (P13498 2-195 partner): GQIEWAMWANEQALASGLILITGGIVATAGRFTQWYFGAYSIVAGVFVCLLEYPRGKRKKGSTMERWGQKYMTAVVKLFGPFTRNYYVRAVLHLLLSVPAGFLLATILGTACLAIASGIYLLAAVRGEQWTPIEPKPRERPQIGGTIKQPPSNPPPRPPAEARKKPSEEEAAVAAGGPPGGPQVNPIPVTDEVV

solubility kinetic at 24 h [1] | IC50 XO (xanthine oxidase) | Chem. stab. pH 7.4 [2] | IC50 Nox5 (Nox5) | SMILES | Activity on Nox1, Nox2, Nox3 and Nox5 [3] | IC50 Nox3 (Nox3)
4.5 µM (≈ 1.99 µg/mL) | — | stable | — | Cc1ccccc1C(F)CNS(=O)(=O)c1c(Cl)cc(Br)cc1Cl (racemic) [Example 35, 4-bromo-2,6-dichloro-N-[2-fluoro-2-(2-methylphenyl)ethyl]benzene-1-sulfonamide] |  | 
> 100 µM | — | stable | — | COc1cc(C)c(S(=O)(=O)NCCc2ccccc2O)c(C)c1 [Example 47, N-[2-(2-hydroxyphenyl)ethyl]-4-methoxy-2,6-dimethyl-benzenesulfonamide] |  | 
16 µM (≈ 5.66 µg/mL) | — | stable | — | COc1cc(C)c(S(=O)(=O)NCCc2ccccc2Cl)c(C)c1 [Example 46, N-[2-(2-chlorophenyl)ethyl]-4-methoxy-2,6-dimethyl-benzenesulfonamide] |  | 
97 µM (≈ 31.2 µg/mL) | — | stable | — | Cc1cc(O)cc(C)c1S(=O)(=O)NCCc1ccccc1O [Example 48, 4-hydroxy-N-[2-(2-hydroxyphenyl)ethyl]-2,6-dimethyl-benzenesulfonamide] |  | 
77 µM (≈ 32.7 µg/mL) | — | stable | — | O=S(=O)(NCCc1ccccc1O)c1c(Cl)cc(Br)cc1Cl [Example 38, 4-bromo-2,6-dichloro-N-[2-(2-hydroxyphenyl)ethyl]benzenesulfonamide] |  | 
94 µM (≈ 33.4 µg/mL) | — | stable | — | Cc1cc(Cl)c(S(=O)(=O)NCCc2ccccc2O)c(C)c1O [Example 44, 6-chloro-3-hydroxy-N-[2-(2-hydroxyphenyl)ethyl]-2,4-dimethyl-benzenesulfonamide] |  | 
> 100 µM | — | stable | — | Cc1cc(C)c(S(=O)(=O)NCCc2ccccc2O)c(C)c1 [Example 37, N-[2-(2-hydroxyphenyl)ethyl]-2,4,6-trimethylbenzene-1-sulfonamide] |  | 

SMILES | solubility kinetic at 24 h [1] | IC50 XO (xanthine oxidase) | Chem. stab. pH 7.4 [2] | IC50 Nox5 (Nox5) | Activity on Nox1, Nox2, Nox3 and Nox5 [3] | IC50 Nox3 (Nox3)
Cc1ccccc1CCNS(=O)(=O)c1c(Cl)cc(Br)cc1Cl [Example 17, 4-bromo-2,6-dichloro-N-[2-(2-methylphenyl)ethyl]benzene-1-sulfonamide] | 0.16 µM (≈ 0.0677 µg/mL) | — | stable | — | inactive | —
O=S(=O)(NCCc1ccccc1Cl)c1c(Cl)cc(C2CC2)cc1Cl [Example 26, 2,6-dichloro-N-[2-(2-chlorophenyl)ethyl]-4-cyclopropylbenzene-1-sulfonamide] |  | — |  | — | inactive | —
Cc1ccccc1CCNS(=O)(=O)c1c(C)cccc1Cl [Example 11, 2-chloro-6-methyl-N-[2-(2-methylphenyl)ethyl]benzene-1-sulfonamide] |  | — |  | — | inactive | —
